Measured values taken from paper PMC5040251, “The Structure of Treponema pallidum Tp0751 (Pallilysin) Reveals a Non-canonical Lipocalin Fold That Mediates Adhesion to Extracellular Matrix Components and Interactions with Host Cells” (PLoS Pathogens, 2016).
Ends that are not written are not given here.

How the values were obtained:
fibrinogen = biological target: T1, fibrinogen (Homo sapiens, UniProt P02671+P02675+P02679); experiment: Initial (single point) binding screen of Tp0751 peptide library to immobilized fibrinogen; details: absorbance 600 nm, three wells, two independent experiments, Student's two-tailed t-test against non-binding peptides
T1 construct: purchased Calbiochem, purchased from VWR International
T1 sequence (P02671 20-629 limits assumed): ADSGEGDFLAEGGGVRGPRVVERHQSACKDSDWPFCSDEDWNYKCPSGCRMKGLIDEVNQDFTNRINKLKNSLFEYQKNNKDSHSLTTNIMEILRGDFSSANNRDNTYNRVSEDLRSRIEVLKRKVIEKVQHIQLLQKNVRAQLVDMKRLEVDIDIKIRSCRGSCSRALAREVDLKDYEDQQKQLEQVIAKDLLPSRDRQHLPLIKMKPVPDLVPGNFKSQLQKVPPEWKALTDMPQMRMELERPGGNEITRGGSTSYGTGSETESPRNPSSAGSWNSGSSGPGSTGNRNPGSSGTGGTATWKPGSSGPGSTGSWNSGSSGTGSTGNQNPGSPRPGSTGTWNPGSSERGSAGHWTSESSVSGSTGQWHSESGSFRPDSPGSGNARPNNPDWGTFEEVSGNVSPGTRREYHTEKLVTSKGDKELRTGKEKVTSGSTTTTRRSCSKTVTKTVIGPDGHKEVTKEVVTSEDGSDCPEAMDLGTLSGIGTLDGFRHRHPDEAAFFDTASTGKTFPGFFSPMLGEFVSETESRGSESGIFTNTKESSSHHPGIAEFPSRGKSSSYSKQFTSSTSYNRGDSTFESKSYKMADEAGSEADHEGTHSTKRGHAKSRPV
T1 sequence (P02675 31-491): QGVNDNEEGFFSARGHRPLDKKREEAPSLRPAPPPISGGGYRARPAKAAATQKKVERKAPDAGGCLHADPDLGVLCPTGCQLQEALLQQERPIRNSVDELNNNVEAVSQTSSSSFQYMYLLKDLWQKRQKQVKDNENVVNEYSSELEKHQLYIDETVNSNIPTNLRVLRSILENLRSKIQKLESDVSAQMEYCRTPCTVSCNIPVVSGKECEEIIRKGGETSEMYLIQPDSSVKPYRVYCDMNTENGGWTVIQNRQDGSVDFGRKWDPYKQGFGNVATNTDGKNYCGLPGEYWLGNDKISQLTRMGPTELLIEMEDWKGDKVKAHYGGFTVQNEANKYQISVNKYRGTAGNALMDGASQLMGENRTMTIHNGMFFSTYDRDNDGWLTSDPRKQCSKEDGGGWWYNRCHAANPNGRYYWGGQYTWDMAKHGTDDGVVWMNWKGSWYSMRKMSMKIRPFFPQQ
T1 sequence (P02679 27-433 limits assumed): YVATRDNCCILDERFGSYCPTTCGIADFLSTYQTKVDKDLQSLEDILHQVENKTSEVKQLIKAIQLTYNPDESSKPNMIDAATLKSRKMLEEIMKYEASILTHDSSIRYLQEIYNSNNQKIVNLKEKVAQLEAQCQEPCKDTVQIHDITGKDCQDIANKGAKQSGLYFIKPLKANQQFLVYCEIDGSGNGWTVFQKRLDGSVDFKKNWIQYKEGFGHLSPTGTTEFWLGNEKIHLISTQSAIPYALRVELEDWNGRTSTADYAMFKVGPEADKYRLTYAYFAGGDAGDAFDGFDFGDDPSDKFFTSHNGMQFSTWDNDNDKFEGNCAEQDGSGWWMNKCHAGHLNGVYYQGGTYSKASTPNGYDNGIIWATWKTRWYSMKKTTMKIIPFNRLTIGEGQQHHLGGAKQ
Procedure: (§1) Fig 3 Tp0751 lipocalin derived peptides directly bind host proteins. (A) Thirteen overlapping Tp0751 synthetic 24-mer peptides were evaluated for binding to immobilized fibrinogen, fibronectin, collagen type I, and collagen type IV. Average absorbance readings (600 nm) from three wells are presented with bars indicating standard error and the results are representative of two independent experiments. […] Average absorbance readings (600 nm) from three wells are presented with bars indicating standard error and the results are representative of two independent experiments. […] The strand colored in cyan reflects the overlap of p10 and p11. Color coded sequences of peptides p4, p6, p10, p10scr1, and p10scr2 are shown. Arginine residues in the p10 peptides are indicated by underlining.
(§2) Plasminogen-depleted human fibrinogen (Calbiochem) was purchased from VWR International. Laminin isolated from Engelbreth-Holm-Swarm murine sarcoma basement membrane and fibronectin isolated from human plasma were purchased from Sigma-Aldrich Canada Ltd. (Oakville, ON). Human collagen types I and IV (Rockland Immunochemicals, Inc.) were purchased from VWR International.
(§3) To test for binding of synthetic Tp0751 peptides p1-p13, p1scr, p6scr, p10scr1, and p10scr2 to the host proteins fibrinogen, fibronectin, laminin, collagen type I, and collagen type IV, initial binding assays were performed as described previously. For dose-dependent binding assays, recombinant proteins were serially diluted 1:2 from either 10 μM to 0.156 μm (Tp0751_78A used for crystallization and Tp0751_78 WT) or 40 μm to 0.625 μm (peptides p4, p6, p10, p11, p10scr1, and p10scr2). Average absorbance readings (600 nm) from three wells are presented with bars indicating standard error and the results are representative of two independent experiments. Plates were read at 600 nm with a BioTek enzyme-linked immunosorbent assay plate reader (Fisher Scientific, Ottawa, ON). All statistical analyses were performed using the Student’s two-tailed t-test. Non-linear regression curves were fitted and apparent dissociation constants (K d) were calculated using GraphPad Prism data analysis software (San Diego, CA).

fibronectin = experiment: Initial (single point) binding screen of Tp0751 peptide library to immobilized fibronectin; parameters: species or system human; details: absorbance 600 nm, three wells, two independent experiments, Student's two-tailed t-test against non-binding peptides
Procedure: as §1, §2, §3

Sequence | Binding to fibrinogen in initial binding screen (fibrinogen) | Binding to fibronectin in initial binding screen (fibronectin)
HHHHHHSIRRRLEVTFESHEVIHVRAVEDV [p11] | statistically significant binding | statistically significant binding
HHHHHHRKTVSFLTRNTAISSIRRRLEVTF [p10] | significant binding | significant binding
HHHHHHGGAAQTHTQPPVQTAMRIALWNRA [p4] | statistically significant binding | statistically significant binding
HHHHHHQGALQHLLAGLWIQTEISPNSGDI [p6] | statistically significant binding | statistically significant binding
